Biological target: RBM39 and the DCAF15 complex (RBM39-Flag / His-DCAF15-DDA1-DDB1) (Homo sapiens (Human), UniProt Q14498+Q66K64)
Assay: DCAF15 RBM39 complex formation TR-FRET assay
Type: binding
Settings: RBM39(R150-D331) 3xFlag 50 nM, His-DCAF15-DDA1-DDB1 10 nM, 60 min room temperature
Protocol: A TR-FRET assay was used to assess the effect of compounds disclosed herein on the interaction between RBM39 and the DCAF15 complex. Test compounds were dissolved to form a 10 mM DMSO stock solution. A 45 μL aliquot of the stock solution was transferred to a 384 pp-plate, and a threefold, 8-point dilution was performed via transferring 15 μL compound solution into 30 μL of DMSO. The plates were then spun at room temperature at 1,000 RPM for 1 minute.
A 30 nL aliquot of the diluted compound was transferred to a 384 well plate, which was incubated at room temperature for 15 minutes. Next, Solutions 1, 2, and 3 were prepared as described in the below tables. A 5 μL aliquot of Solution 2 was added to each well, followed by 5 μL of Solution 3 to start the reaction. The final volume of each well was 10 μL. The plates were incubated at room temperature for 60 minutes, and then read.
Next, an RBM39 (R150-D331) 3× Flag used in TR-FRET assay was prepared:
Recombinant RBM39 protein is composed of the R1R2 of RBM39 (aa 150 to 331; UniProt: Q14498). The coding sequence was sub-cloned into pGEX4T-1-RBM39-flag vector, expressed as a GST-fusion protein with N-terminal TEV protease cleavage site. A 3× Flag tag was added to the C-terminal of R1R2 used in a FRET assay.

Compared with Cc1ccc(NS(=O)(=O)c2nc(C(=O)N3CCCC3)cs2)c2[nH]cc(C#N)c12 [Compound 60], Cc1ccc(NS(=O)(=O)c2nc(C(=O)N3CCCCC3)cs2)c2[nH]cc(C#N)c12 [Compound 77] is 1.6-fold lower in EC50: 1360 nM for the first, 828 nM for the second.

Going from Cc1ccc(NS(=O)(=O)c2nc(C(=O)N3CCOCC3)cs2)c2[nH]cc(C#N)c12 [Compound 61] to Cc1ccc(NS(=O)(=O)c2nc(C(=O)N3CCNCC3)cs2)c2[nH]cc(C#N)c12 [Compound 78], the EC50 rises from 1790 nM to 3250 nM (1.8-fold).

Going from Cc1ccc(NS(=O)(=O)c2cscn2)c2[nH]cc(C#N)c12 [Compound 63] to Cc1nc(S(=O)(=O)Nc2ccc(C)c3c(C#N)c[nH]c23)cs1 [Compound 152], the EC50 falls from 1170 nM to 281 nM (4.2-fold). The second is the more potent here.

First: N#Cc1c[nH]c2c(NS(=O)(=O)c3cscn3)cccc12 [Compound 64]
Second: Cc1nc(S(=O)(=O)Nc2cccc3c(C#N)c[nH]c23)cs1 [Compound 153]
The EC50 of the first is 3.7-fold higher: 3440 nM for the first, 940 nM for the second. The second is the more potent here.

First: N#Cc1c[nH]c2c(NS(=O)(=O)c3nc(Br)cs3)cccc12 [Compound 65]
Second: N#Cc1c[nH]c2c(NS(=O)(=O)c3nc(C(F)(F)F)cs3)cccc12 [Compound 134]
The EC50 of the first is 1.6-fold lower: 1080 nM for the first, 1760 nM for the second. The first is the more potent here.

Cc1ccc(NS(=O)(=O)c2ncc(-c3cncnc3)s2)c2[nH]cc(C#N)c12 [Compound 67] and Cc1ccc(NS(=O)(=O)c2ncc(-c3ccnnc3)s2)c2[nH]cc(C#N)c12 [Compound 68] are within 1.5-fold of each other in EC50: 520 nM for the first, 708 nM for the second.

Cc1ccc(NS(=O)(=O)c2ncc(-c3cc[nH]n3)s2)c2[nH]cc(C#N)c12 [Compound 69] and Cc1ccc(NS(=O)(=O)c2ncc(-c3cn[nH]c3)s2)c2[nH]cc(C#N)c12 [Compound 70] are within 1.5-fold of each other in EC50: 421 nM for the first, 338 nM for the second.

Compared with Cc1ccc(NS(=O)(=O)c2ncc(-c3cocn3)s2)c2[nH]cc(C#N)c12 [Compound 71], Cc1ccc(NS(=O)(=O)c2ncc(C(N)=O)s2)c2[nH]cc(C#N)c12 [Compound 141] is 1.7-fold higher in EC50: 532 nM for the first, 919 nM for the second. The first is the more potent here.

Going from Cc1ccc(NS(=O)(=O)c2nc(C(N)=O)cs2)c2[nH]cc(C#N)c12 [Compound 72] to Cc1ccc(NS(=O)(=O)c2nc(C(=O)NCCO)cs2)c2[nH]cc(C#N)c12 [Compound 74], the EC50 rises from 432 nM to 1450 nM (3.4-fold).

Compared with CCN(CC)C(=O)c1csc(S(=O)(=O)Nc2ccc(C)c3c(C#N)c[nH]c23)n1 [Compound 73], COCCNC(=O)c1csc(S(=O)(=O)Nc2ccc(C)c3c(C#N)c[nH]c23)n1 [Compound 75] is 3-fold higher in EC50: 738 nM for the first, 2180 nM for the second.

Going from Cc1ccc(NS(=O)(=O)c2nc(C(=O)N3CCC(O)C3)cs2)c2[nH]cc(C#N)c12 (stereo not drawn) [Compound 76] to Cc1ccc(NS(=O)(=O)c2ncc(C(=O)N3CCC(O)C3)s2)c2[nH]cc(C#N)c12 (stereo not drawn) [Compound 143], the EC50 falls from 3320 nM to 2150 nM (1.5-fold).

First: Cc1ccc(NS(=O)(=O)c2nc(C(=O)N3CCN(C)CC3)cs2)c2[nH]cc(C#N)c12 [Compound 79]
Second: Cc1ccc(NS(=O)(=O)c2ncc(C(=O)N3CCN(C)CC3)s2)c2[nH]cc(C#N)c12 [Compound 131]
The EC50 of the first is 2.6-fold higher: 9710 nM for the first, 3800 nM for the second.

Going from Cc1ccc(NS(=O)(=O)c2cc(C3CC3)no2)c2[nH]cc(C#N)c12 [Compound 81] to Cc1ccc(NS(=O)(=O)c2cnc(C3CC3)o2)c2[nH]cc(C#N)c12 [Compound 97], the EC50 rises from 55.6 nM to 105 nM (1.9-fold).

Cc1nc(S(=O)(=O)Nc2ccc(C)c3c(C#N)c[nH]c23)c(C)s1 [Compound 82] and Cc1scnc1S(=O)(=O)Nc1ccc(C)c2c(C#N)c[nH]c12 [Compound 93] are within 1.5-fold of each other in EC50: 1440 nM for the first, 1520 nM for the second.

Compared with Cc1ccc(NS(=O)(=O)c2onc(C3CC3)c2Cl)c2[nH]cc(C#N)c12 [Compound 83], N#Cc1c[nH]c2c(NS(=O)(=O)c3onc(C4CC4)c3Cl)cccc12 [Compound 89] is 1.7-fold higher in EC50: 105 nM for the first, 174 nM for the second. The first is the more potent here.

First: COc1ncc(S(=O)(=O)Nc2ccc(C)c3c(C#N)c[nH]c23)s1 [Compound 84]
Second: CCc1ncc(S(=O)(=O)Nc2ccc(C)c3c(C#N)c[nH]c23)s1 [Compound 85]
The EC50 of the first is 1.8-fold higher: 175 nM for the first, 95.9 nM for the second.

Going from Cc1nocc1S(=O)(=O)Nc1ccc(C)c2c(C#N)c[nH]c12 [Compound 86] to Cc1ncc(S(=O)(=O)Nc2ccc(C)c3c(C#N)c[nH]c23)o1 [Compound 98], the EC50 falls from 2070 nM to 196 nM (11-fold).

N#Cc1c[nH]c2c(NS(=O)(=O)c3cc(C4CC4)no3)cccc12 [Compound 87] and N#Cc1c[nH]c2c(NS(=O)(=O)c3cnc(C4CC4)o3)cccc12 [Compound 107, N-(3-cyano-1H-indol-7-yl)-2-cyclopropyl-1,3-oxazole-5-sulfonamide] are within 1.5-fold of each other in EC50: 277 nM for the first, 325 nM for the second.

COc1ncc(S(=O)(=O)Nc2cccc3c(C#N)c[nH]c23)s1 [Compound 90] and N#Cc1c[nH]c2c(NS(=O)(=O)c3cnc(Cl)s3)cccc12 [Compound 136] are within 1.5-fold of each other in EC50: 389 nM for the first, 511 nM for the second.

Going from CCc1ncc(S(=O)(=O)Nc2cccc3c(C#N)c[nH]c23)s1 [Compound 91] to N#Cc1c[nH]c2c(NS(=O)(=O)c3cnc(C(F)F)s3)cccc12 [Compound 120], the EC50 rises from 76.6 nM to 359 nM (4.7-fold). The first is the more potent here.

First: Cc1ccc(NS(=O)(=O)c2cc(C(C)(C)C)no2)c2[nH]cc(C#N)c12 [Compound 94]
Second: Cc1ccc(NS(=O)(=O)c2cnc(C(C)(C)C)o2)c2[nH]cc(C#N)c12 [Compound 100]
The EC50 of the first is 8.1-fold lower: 45.2 nM for the first, 364 nM for the second. The first is the more potent here.

Cc1ccc(NS(=O)(=O)c2csc(C(F)F)n2)c2[nH]cc(C#N)c12 [Compound 95] and Cc1ccc(NS(=O)(=O)c2cnc(C(F)F)s2)c2[nH]cc(C#N)c12 [Compound 117] are within 1.5-fold of each other in EC50: 104 nM for the first, 99.6 nM for the second.

Going from Cc1nc(Br)sc1S(=O)(=O)Nc1ccc(C)c2c(C#N)c[nH]c12 [Compound 99] to Cc1nc(Br)sc1S(=O)(=O)Nc1cccc2c(C#N)c[nH]c12 [Compound 109], the EC50 rises from 518 nM to 2070 nM (4-fold). The first is the more potent here.

First: O=S(=O)(Nc1cccc2cn[nH]c12)c1nccs1 [Compound 102]
Second: O=S(=O)(Nc1cccc2c(Cl)c[nH]c12)c1nccs1 [Compound 133]
The EC50 of the first is higher: greater than 30000 nM for the first, 2670 nM for the second.

First: CC(C)(C)c1cc(S(=O)(=O)Nc2cccc3c(C#N)c[nH]c23)on1 [Compound 104]
Second: CC(C)(C)c1ncc(S(=O)(=O)Nc2cccc3c(C#N)c[nH]c23)o1 [Compound 110]
The EC50 of the first is 5.7-fold lower: 128 nM for the first, 729 nM for the second.

Compared with N#Cc1c[nH]c2c(NS(=O)(=O)c3csc(C(F)F)n3)cccc12 [Compound 105], N#Cc1c[nH]c2c(NS(=O)(=O)c3ncc(Cl)s3)cccc12 [Compound 116] is 7.1-fold higher in EC50: 299 nM for the first, 2130 nM for the second. The first is the more potent here.

Going from Cc1ncc(S(=O)(=O)Nc2cccc3c(C#N)c[nH]c23)o1 [Compound 108] to CC(C)c1cc(S(=O)(=O)Nc2cccc3c(C#N)c[nH]c23)on1 [Compound 138], the EC50 falls from 1970 nM to 423 nM (4.7-fold). The second is the more potent here.

First: Cc1ccc(NS(=O)(=O)c2ncc(P(C)(C)=O)s2)c2[nH]cc(C#N)c12 [Compound 111, N-(3-cyano-4-methyl-1H-indol-7-yl)-5-(dimethylphosphoryl)thiazole-2-sulfonamide]
Second: CNC(=O)c1cnc(S(=O)(=O)Nc2ccc(C)c3c(C#N)c[nH]c23)s1 [Compound 126]
The EC50 of the first is 1.7-fold higher: 1630 nM for the first, 960 nM for the second.

Cc1ccc(NS(=O)(=O)c2ncc(C(=O)N3CCOCC3)s2)c2[nH]cc(C#N)c12 [Compound 112] and Cc1ccc(NS(=O)(=O)c2ncc(C(=O)N3CCCC3)s2)c2[nH]cc(C#N)c12 [Compound 130] are within 1.5-fold of each other in EC50: 1360 nM for the first, 1130 nM for the second.

Going from N#Cc1c[nH]c2c(NS(=O)(=O)c3nccs3)ccc(F)c12 [Compound 114] to N#Cc1c[nH]c2c(NS(=O)(=O)c3nccs3)cc(F)cc12 [Compound 132], the EC50 rises from 3260 nM to 6650 nM (2-fold).

Compared with CCc1ncc(S(=O)(=O)Nc2ccc(C)c3c(C#N)c[nH]c23)o1 [Compound 118], Cc1ccc(NS(=O)(=O)c2cc(C(C)C)no2)c2[nH]cc(C#N)c12 [Compound 135] is 3.6-fold lower in EC50: 168 nM for the first, 47 nM for the second.

Compared with Cc1ccc(NS(=O)(=O)c2ncc(C(=O)N(C)C)s2)c2[nH]cc(C#N)c12 [Compound 127], Cc1ccc(NS(=O)(=O)c2ncc(C(=O)NCCO)s2)c2[nH]cc(C#N)c12 [Compound 129] is 1.9-fold higher in EC50: 959 nM for the first, 1820 nM for the second.

First: CCN(CC)C(=O)c1csc(S(=O)(=O)Nc2ccc(C)c3c(C#N)c[nH]c23)n1 [Compound 128]
Second: COCCNC(=O)c1cnc(S(=O)(=O)Nc2ccc(C)c3c(C#N)c[nH]c23)s1 [Compound 142]
The EC50 of the first is 3-fold lower: 650 nM for the first, 1960 nM for the second.

CCc1nc(S(=O)(=O)Nc2ccc(C)c3c(C#N)c[nH]c23)cn1CC(=O)NC1CC1 [Compound 139] and CCc1nc(S(=O)(=O)Nc2ccc(C)c3c(C#N)c[nH]c23)cn1CC(=O)O [Compound 140] are within 1.5-fold of each other in EC50: 6070 nM for the first, 6620 nM for the second.

Cc1ccc(NS(=O)(=O)c2ncc(C(=O)N3CCCCC3)s2)c2[nH]cc(C#N)c12 [Compound 144] and N#Cc1c[nH]c2c(NS(=O)(=O)c3nc(C(F)(F)F)cs3)ccc(F)c12 [Compound 148] are within 1.5-fold of each other in EC50: 1560 nM for the first, 1310 nM for the second.

Going from CCc1nc(S(=O)(=O)Nc2ccc(F)c3c(Cl)c[nH]c23)c[nH]1 [Compound 146] to CCc1nc(S(=O)(=O)Nc2ccc(F)c3c(C#N)c[nH]c23)c[nH]1 [Compound 147], the EC50 rises from 505 nM to 2030 nM (4-fold).

O=S(=O)(Nc1cc(F)cc2c(Cl)c[nH]c12)c1nc(C(F)(F)F)cs1 [Compound 149] and N#Cc1c[nH]c2c(NS(=O)(=O)c3nc(C(F)(F)F)cs3)cc(F)cc12 [Compound 150] are within 1.5-fold of each other in EC50: 897 nM for the first, 1250 nM for the second.

With O=S(=O)(Nc1cccc2c(Cl)c[nH]c12)c1nc(C(F)(F)F)cs1 [Compound 151] the EC50 was 344 nM.

Reference: US20240092770A1, “Heterocycle RMB39 Modulators” (Recursion Pharmaceuticals, Inc., priority 2022, published 2024)
